Source: patent US11752162B2, “Compounds and compositions for treating solid tumors by intratumoral administration” (Novartis AG, priority 2017, dated 2023)

What was measured:
IP-10 = assay: Plasma IP-10 profiles in Wistar rats after s.c. injection; format: in vivo, rat; conditions: male Wistar rats
in vivo = conditions: male, Wistar, rat, iv, 1 mg/kg
Experimental: Note: The pharmacokinetic properties of Compound 15 in 50 mM Tris/0.9% NaCl (pH 7.4) were examined in male Wistar rats following a single 1 mg/kg intravenous bolus administration.

[1] = Extent of Compound 15 binding to Alhydrogel (% bound) in the suspension; format: physicochemical; conditions: for % bound (Compound 15 adsorbed to aluminum hydroxide): 100 mM Tris buffer (pH 7.4)
Experimental: In the preparation of the Compound 15/Alhydrogel® suspension used in the Examples herein, the stock suspension of Alhydrogel® was filtered by gravity filtration through a 100 μm cell strainer before mixing with stock solution comprising Compound 15. The resulting mixture/suspension was stirred for 5 minutes to allow Compound 15 to adsorb/bind to the aluminum of Alhydrogel®.
To determine the extent of Compound 15 binding to Alhydrogel® (i.e. % bound) in the Compound 15/Alhydrogel® suspension used in the Examples herein, aliquots of the suspension were centrifuged to pellet the bound Compound 15/Alhydrogel® (e.g. 21,000×g for 10 min), and the amount of free Compound 15 in the supernatant was analyzed by HPLC/UV or LC/MS/MS.

[2] = Binding efficiency of Compound 15 to aluminum-containing particles (Alhydrogel) in Tris buffer; format: physicochemical
[3] = Adsorption of compounds to aluminum hydroxide in histidine buffer (pH 6.8); format: physicochemical; conditions: histidine buffer pH 6.8, 0.1 mg/mL compound, 37° C. 5 hours
Experimental: The resulting solution was diluted 10-fold with blank histidine buffer to a final compound concentration of 0.1 mg/mL. Diluted solutions were incubated at 37° C. for 5 hours. The samples were centrifuged at 14,000 rpm for 10 minutes to pellet the insoluble. The supernatant (along with an internal standard) was then evaluated by LC-MS/MS using a ballistic gradient (from 5% CH3CN-0.5% formic acid to 95% CH3CN-1.0% formic acid in 3.5 minutes) on a Waters Atlantis dC18 (50 mm×2.1 mm) column at room temperature against a calibration curve prepared at known compound concentrations ranging from 0.005 to 50 μM. The concentration in the supernatant was calculated as % unbound to aluminum hydroxide compared to control; the % bound to aluminum hydroxide was calculated as 100% minus % unbound.

MC38 tumors = assay: Contralateral MC38 colon cancer model, alone or with checkpoint inhibitors; format: in vivo, mouse; conditions: Compound 15 alone, without aluminum hydroxide, 50 μg i.t.
Experimental: MC38 cells were grown in sterile conditions in a 37° C. incubator with 5% CO2 for two weeks. The cells were cultured in Dulbecco's Modified Eagle's medium (DMEM) media supplemented with 10% FBS, cells were passed every 2-3 days. On the day of injection, cells were harvested (Passage 12) and re-suspended in Hanks' Balanced Salt Solution (HBSS) at a concentration of 2.5×10^6/ml. Cells were Radil tested for mycoplasma and murine viruses.
For each mouse, 0.25×10^6 cells were implanted with subcutaneously injection into right flank using a 28½ g needle ([…]). After the first implantation on day 3 (0.25×10^6) cells are implanted with a subcutaneous injection into left flank using a 28½ g needle (100 μL injection volume). Tumor sizes were assessed three times a week once tumors were palpable. Tumor sizes were determined by using caliper measurements, with tumor volumes calculated using the formula: (Length×Width×Width)/2.
Female C57BL/6 mice bearing the MC38 tumors were randomized into 7 groups (n=9 mice per group) 9 days post tumor cell implantation with an average tumor volume range of 69.09-142.25 mm^3, and the separate groups of tumor bearing mice received treatment as shown in Table 17.
The anti-tumor efficacy of Compound 15 adsorbed to aluminum hydroxide (Alhydrogel®) alone or in combination with checkpoint inhibitors, was determined using a contralateral MC38 colon cancer model. The tumor volume was obtained after two weekly intratumoral injections of Compound 15 adsorbed to aluminum hydroxide (50 μg each) either alone (Group 2), in a double combination with intraperitoneal injection (twice weekly) of an anti-PD-L1 antibody (10 mg/kg) (Group 5), in a double combination with intraperitoneal injection (twice weekly) of an anti-CTLA4 antibody (10 mg/kg) (Group 6), or in a triple combination with intraperitoneal injection (twice weekly) of an anti-PD-L1 antibody (10 mg/kg) and with intraperitoneal injection of an anti-CTLA4 antibody (10 mg/kg) (group 7). For comparison, data was obtained after an intraperitoneal injection (twice weekly) of the anti-PD-L1 antibody (10 mg/kg) alone (Group 3) and after an intraperitoneal injection (twice weekly) of the anti-CTLA4 antibody (10 mg/kg) alone (Group 4). The untreated control data was also obtained (Group 1).
The anti-tumor efficacy of Compound 15 alone (without aluminum hydroxide (Alhydrogel®)) or in combination with checkpoint inhibitors was determined using a contralateral MC38 colon cancer model. […] In addition, the anti-tumor efficacy of Compound 15 adsorbed to aluminum hydroxide (Alhydrogel®) alone or in a triple combination with checkpoint inhibitors was determined using a contralateral MC38 colon cancer model. […]

[4] = female, C57/BL6, mouse, in vivo, iv, 2 mg/kg
[5] = Compound 15 0.25 mg/mL, aluminum 0.625 mg/mL, ratio 2.5:1
[6] = Compound 15 0.25 mg/mL, aluminum 5 mg/mL, ratio 20:1
[7] = Compound 15 1 mg/mL, aluminum 2.5 mg/mL, ratio 2.5:1
[8] = Compound 15 2 mg/mL, aluminum 0.1 mg/mL, ratio 0.05:1, 20 mM Tris pH 7.4
[9] = Compound 15 2 mg/mL, aluminum 2 mg/mL, ratio 1:1, 20 mM Tris pH 7.4
[10] = Compound 15 2 mg/mL, aluminum 3 mg/mL, ratio 1.5:1, 20 mM Tris pH 7.4
[11] = Compound 15 3 mg/mL, aluminum 5 mg/mL, ratio 1.7:1
[12] = Compound 15 3 mg/mL, aluminum 7.5 mg/mL, ratio 2.5:1

Cc1cc(OCCOCCC(F)(F)P(=O)(O)O)ccc1CCc1cnc2c(N)nc3cc(CCC(=O)O)ccc3c2c1 [Compound 15, 3-(5-amino-2-(4-(2-(3,3-difluoro-3-phosphonopropoxy)ethoxy)-2-methylphenethyl)benzo[f][1,7]naphthyridin-8-yl)propanoic acid]
peak plasma IP-10 levels compared with 600 μg Compound 15/aluminum hydroxide (IP-10; 600 μg s.c.): higher peak IP-10 levels with a fast rate of decline | time of maximum plasma IP-10 levels post s.c. injection (IP-10; 50 and 600 μg adsorbed, 600 μg free Compound 15): around 3 h | MRT (in vivo): 12 min | half-life (in vivo): 72 min | clearance (in vivo; pH 7.4): 9.2 mL/min/kg | % bound (Compound 15 adsorbed to aluminum hydroxide) ([1]; 50 μg dose formulation, 1:2.5 w/w ratio): 91% | % bound (Compound 15 adsorbed to aluminum hydroxide) ([1]; 200 μg dose formulation, 1:2.5 w/w ratio): 94% | % bound (Compound 15 adsorbed to aluminum hydroxide) ([1]; 600 μg dose formulation, 1:2.5 w/w ratio): 97% | % bound (Compound 15 adsorbed to aluminum hydroxide) ([1]; 50 kg/50 μg (so in the source) dose formulation, 1:20 w/w ratio): 98% | % bound (Compound 15 adsorbed to aluminum hydroxide) ([1]; 600 kg (so in the source) dose formulation, 1:1.7 w/w ratio): 98% | % bound (Compound 15/aluminum hydroxide) ([1]; fixed ratio of 1:1.5 w/w, A20 study formulation): 97% | Compound 15 % Bound [2, 5]: 90.7% | Compound 15 % Free [2, 5]: 9.3% | Compound 15 % Bound [2, 6]: 97.6% | Compound 15 % Free [2, 6]: 1.4% | Compound 15 % Bound [2, 7]: 93.5% | Compound 15 % Free [2, 7]: 6.5% | Compound 15 % Bound [2, 8]: 9.6% | Compound 15 % Free [2, 8]: 90.4% | Compound 15 % Free ([2]; Compound 15 2 mg/mL, aluminum 0.5 mg/mL, ratio 0.25:1, 20 mM Tris pH 7.4): 74.3% | Compound 15 % Bound ([2]; Compound 15 2 mg/mL, aluminum 1 mg/mL, ratio 0.5:1, 20 mM Tris pH 7.4): 43.5% | Compound 15 % Bound [2, 9]: 80.8% | Compound 15 % Free [2, 9]: 19.2% | Compound 15 % Bound [2, 10]: 97.6% | Compound 15 % Free [2, 10]: 2.4% | Compound 15 % Bound [2, 11]: 99.6% | Compound 15 % Free [2, 11]: 0.4% | Compound 15 % Bound [2, 12]: 97.1% | Compound 15 % Free [2, 12]: 2.9% | Compound 15 % Bound ([2]; aluminum hydroxide:Compound 15 ratio (w/w) 1.5:1, Tris buffer pH 7): 98.5% | Compound 15 % Bound ([2]; aluminum hydroxide:Compound 15 ratio (w/w) 1.5:1, Tris buffer pH 7.5): 85.9% | Compound 15 % Bound ([2]; aluminum hydroxide:Compound 15 ratio (w/w) 2:1, Tris buffer pH 7): 99.3% | Compound 15 % Bound ([2]; aluminum hydroxide:Compound 15 ratio (w/w) 2:1, Tris buffer pH 8): 99.1% | % Free Compound 15 ([2]; dosing formulation of Example 9, 100 mM Tris pH 7.4): 100% | % Free Compound 15 ([2]; dosing formulation of Example 10, 100 mM Tris pH 7.4): 100% | % Bound [3]: 96.0% | difference from the no treatment group, contralateral tumor site (MC38 tumors): did not show a difference from the no treatment group | difference from the no treatment group, primary injection site (MC38 tumors): did not show a difference from the no treatment group | plasma clearance as % of mouse liver blood flow [4]: ~20%
